Experimental data published in patent publication US20020059032A1, “Rational selection of putative peptides from identified nucleotide or peptide sequences” (priority 1999, published 2002).
Where a SMILES comes first, the peptide text is derived from it.

Target: guinea pig brain membranes
Assay: Binding test with guinea pig brain membranes
Settings: tested on guinea pig brain membranes; read-out: IC50 = 100 μM
Procedure: Binding Assay Alternative Protocol by Skatron
The experimental conditions are identical for all the binding assay protocols except for the fact that: i) the volume R in operation is 200 μl; ii) the test carried out in 96-well Falcon plates iii) the reaction is directly stopped by filtration on filterMat (ref. 11734) Skatron and the radioactivity associated with the filtrate is evaluated: either directly with a γ counter for the peptides labelled with […]: or with a […] in the presence of 5 ml of scintillating liquid.
Membrane Preparations of Guinea Pig Brains and Binding Assay
The guinea pigs are sacrificed by rupturing their cervical vertibrae, decapitated, and the brains are removed very rapidly and placed into a sucrose-Tris-HCl buffer (0.32 M sucrose 5 mM, Tris-HCl, 0.1 g/l bacitracin) at 4° C. (about 10 ml of buffer per brain). The brains are then homogenized using a Potter device and the homogenate is placed in incubation for 30 minutes at 37° C. under agitation, then centrifuged twice for 35 minutes at 100,000×g at 4° C. The protein content of the membrane preparations is evaluated according to the Bradford method (BioRad, according to the manufacturers protocol).
Bonding of Labelled Agonists to the Guinea Pig Brain Membrane Preparation The membranes are placed in a buffer (50 mM of Tris-HCl, 5 mM of MgCl2 and 0.1 g/l of bacitracin) at the desired protein concentration (iodized CCK bond, 0.1 mg of protein/ml; iodized gastrin bond: 0.5 mg of proteins/ml). They are then incubated in the presence of a labelled ligand in a total volume of 500 μl (about 10 pM for the iodized CCK8, 20 pM for the iodized gastrin13), 50-80 minutes at 25° C., and in the presence or absence of cold agonists. The reaction is stopped with 3 ml of additional BSA buffer (20 g/l) at 4° C., the tubes are centrifuged at 10,000×g, the supernatant is drawn off and the radioactivity associated with the precipitate is evaluated with a γ counter.

Row | SMILES | IC50 [µM]
1 | CC(C)C[C@H](NC(=O)[C@H](CC(C)C)NC(=O)[C@@H](N)CO)C(=O)N[C@@H](CO)C(=O)N[C@@H](CCCCN)C(=O)N[C@H](C(=O)N[C@@H](CO)C(=O)N[C@@H](CCC(N)=O)C(N)=O)C(C)C [Example 7, H-SLLSKVSQ-NH2] (H-SLLSKVSQ-NH2) | 0.43
2 | CSCC[C@H](NC(=O)[C@H](CCC(N)=O)NC(=O)[C@H](CC(C)C)NC(=O)[C@H](CCCCN)NC(=O)[C@@H]1CCCN1C(=O)[C@H](CC(=O)O)NC(=O)[C@H](CCC(N)=O)NC(=O)[C@@H](NC(=O)[C@@H](N)C(C)C)[C@@H](C)O)C(N)=O [Example 8, H-VTQDPKLQM-NH2] (H-VTQDPKLQM-NH2) | 4.2
3 | CSCC[C@H](NC(=O)[C@@H](NC(=O)[C@H](CCC(=O)O)NC(=O)[C@H](CCC(=O)O)NC(=O)[C@H](CC(C)C)NC(=O)[C@H](CCC(N)=O)NC(=O)[C@@H](N)CC(C)C)[C@@H](C)O)C(=O)N1CCC[C@H]1C(=O)N[C@@H](CO)C(=O)N1CCC[C@H]1C(=O)N[C@@H](Cc1ccc(O)cc1)C(N)=O [Example 14, H-LQLEETMPSPY-NH2] (H-LQLEETMPSPY-NH2) | 0.86
4 | CC[C@H](C)[C@H](NC(=O)[C@H](CO)NC(=O)[C@@H](N)Cc1ccccc1)C(=O)N[C@@H](C)C(=O)N[C@H](C(=O)N[C@@H](CC(C)C)C(=O)N[C@@H](CCCNC(=N)N)C(=O)N[C@@H](CC(=O)O)C(=O)N[C@@H](Cc1ccccc1)C(=O)NCC(=O)N[C@H](C(N)=O)C(C)C)[C@@H](C)O [Example 15, H-FSIATLRDFGV-NH2] (H-FSIATLRDFGV-NH2) | 0.36
5 | CC(C)C[C@H](NC(=O)[C@H](CCC(=O)O)NC(=O)[C@H](CC(=O)O)NC(=O)[C@H](CC(C)C)NC(=O)[C@@H](NC(=O)[C@H](Cc1ccccc1)NC(=O)[C@H](C)NC(=O)[C@H](Cc1c[nH]cn1)NC(=O)[C@H](CO)NC(=O)[C@H](CO)NC(=O)[C@@H](N)CC(=O)O)[C@@H](C)O)C(=O)N[C@@H](CCCNC(=N)N)C(N)=O [Example 17, H-DSSHAFTLDELR-NH2] (H-DSSHAFTLDELR-NH2) | 0.68
6 | CSCC[C@H](NC(=O)[C@@H](N)CC(=O)O)C(=O)N[C@H](C(=O)N[C@H](C(=O)N[C@@H](Cc1ccccc1)C(=O)N[C@@H](CC(C)C)C(=O)N[C@@H](CC(=O)O)C(=O)NCC(=O)NCC(=O)N[C@@H](CCC(N)=O)C(=O)N[C@@H](CC(C)C)C(=O)NCC(=O)N[C@H](C(=O)N[C@@H](CC(C)C)C(=O)N[C@H](C(N)=O)C(C)C)[C@@H](C)O)C(C)C)C(C)C [Example 18, H-DMVVFLDGGQLGTLV-NH2] (H-DMVVFLDGGQLGTLV-NH2) | 0.8
7 | CC[C@H](C)[C@H](NC(=O)[C@H](Cc1c[nH]cn1)NC(=O)[C@@H](N)CC(C)C)C(=O)N[C@@H](CO)C(=O)N[C@@H](Cc1c[nH]cn1)C(=O)N[C@@H](CC(=O)O)C(=O)N[C@@H](CCSC)C(=O)N[C@H](C(=O)NCC(=O)N1CCC[C@H]1C(=O)N[C@@H](CC(=O)O)C(N)=O)[C@@H](C)O [Example 19, H-LHISHDMTGPD-NH2] (H-LHISHDMTGPD-NH2) | 0.7
8 | CC[C@H](C)[C@H](NC(=O)CNC(=O)[C@H](CCC(=O)O)NC(=O)[C@H](CC(C)C)NC(=O)[C@@H](N)CO)C(=O)N[C@@H](Cc1ccccc1)C(=O)N[C@@H](CC(=O)O)C(=O)N[C@@H](CC(=O)O)C(=O)N[C@H](C(=O)N[C@H](C(=O)N1CCC[C@H]1C(=O)N[C@@H](CC(=O)O)C(N)=O)C(C)C)[C@@H](C)CC [Example 20, H-SLEGIFDDIVPD-NH2] (H-SLEGIFDDIVPD-NH2) | 0.35
9 | CC[C@H](C)[C@H](NC(=O)[C@H](CO)NC(=O)[C@H](Cc1ccccc1)NC(=O)[C@@H]1CCCN1C(=O)[C@@H](NC(=O)[C@H](Cc1ccccc1)NC(=O)[C@H](C)NC(=O)[C@H](CC(=O)O)NC(=O)[C@@H](N)CO)C(C)C)C(N)=O [Example 22, H-SDAFVPFSI-NH2] (H-SDAFVPFSI-NH2) | 2.8
10 | CC(C)C[C@H](NC(=O)[C@H](C)NC(=O)CNC(=O)[C@@H](NC(=O)[C@@H](N)CCCNC(=N)N)[C@@H](C)O)C(=O)N[C@H](C(=O)N[C@@H](CC(C)C)C(=O)N[C@@H](CO)C(=O)N[C@@H](CCCNC(=N)N)C(=O)NCC(N)=O)C(C)C [Example 23, H-RTGALVLSRG-NH2] (H-RTGALVLSRG-NH2) | 1.3
11 | CC[C@H](C)[C@H](NC(=O)[C@@H]1CCCN1C(=O)CNC(=O)CN)C(=O)N[C@@H](CO)C(=O)N[C@@H](Cc1ccccc1)C(=O)N[C@@H](CO)C(=O)N[C@@H](CO)C(=O)N[C@@H](CO)C(=O)N[C@@H](CCCNC(=N)N)C(=O)N[C@@H](CO)C(N)=O [Example 25, H-GGPISFSSSRS-NH2] (H-GGPISFSSSRS-NH2) | 0.31
12 | CC(C)C[C@H](NC(=O)[C@H](CO)NC(=O)[C@@H](NC(=O)[C@H](CC(=O)O)NC(=O)[C@@H](N)CO)[C@@H](C)O)C(=O)N[C@H](C(=O)N[C@@H](Cc1c[nH]c2ccccc12)C(=O)N[C@@H](CC(N)=O)C(=O)N[C@@H](CO)C(=O)N[C@H](C(=O)N[C@@H](CCCCN)C(N)=O)C(C)C)[C@@H](C)O [Example 27, H-SDTSLTWNSVK-NH2] (H-SDTSLTWNSVK-NH2) | 0.68
13 | CSCC[C@H](NC(=O)CNC(=O)[C@H](Cc1ccccc1)NC(=O)[C@H](CC(N)=O)NC(=O)[C@H](CCCNC(=N)N)NC(=O)[C@H](CC(C)C)NC(=O)[C@@H](NC(=O)[C@H](CCSC)NC(=O)[C@H](CC(C)C)NC(=O)[C@H](CO)NC(=O)[C@@H](N)Cc1ccccc1)[C@@H](C)O)C(N)=O [Example 28, H-FSLMTLRNFGM-NH2] (H-FSLMTLRNFGM-NH2) | 0.4

The next molecules have a lower IC50 than those just listed; values first:

Row | IC50 [µM] | SMILES
14 | 0.22 | CC[C@H](C)[C@H](NC(=O)[C@H](C)NC(=O)[C@@H](NC(=O)[C@H](CCC(=O)O)NC(=O)[C@H](CCC(=O)O)NC(=O)[C@@H]1CCCN1C(=O)[C@H](Cc1ccccc1)NC(=O)[C@@H](N)CC(=O)O)C(C)C)C(=O)N[C@H](C(=O)N[C@@H](CCC(=O)O)C(=O)N[C@@H](CCC(=O)O)C(=O)N[C@@H](CC(C)C)C(N)=O)C(C)C [Example 9, H-DFPEEVAIVEEL-NH2] (H-DFPEEVAIVEEL-NH2)
15 | 0.03 | CSCC[C@H](N)C(=O)N[C@@H](CC(=O)O)C(=O)N[C@H](C(=O)NCC(=O)NCC(=O)N[C@@H](CC(C)C)C(=O)N[C@@H](CO)C(=O)N[C@@H](CC(=O)O)C(=O)N1CCC[C@H]1C(=O)N[C@@H](Cc1ccc(O)cc1)C(=O)N[C@H](C(=O)N[C@@H](CCCCN)C(=O)N[C@H](C(=O)N[C@@H](Cc1c[nH]cn1)C(=O)N[C@@H](CC(C)C)C(=O)N[C@@H](CC(C)C)C(=O)N[C@@H](CCC(N)=O)C(=O)NCC(N)=O)C(C)C)C(C)C)C(C)C [Example 10, H-MDVGGLSDPYVKVHLLQG-NH2] (H-MDVGGLSDPYVKVHLLQG-NH2)
16 | 0.27 | CC(C)C[C@H](NC(=O)[C@H](CO)NC(=O)[C@@H]1CCCN1C(=O)[C@@H](N)CC(=O)O)C(=O)N1CCC[C@H]1C(=O)N[C@H](C(=O)N[C@@H](C)C(=O)N[C@@H](CO)C(=O)N[C@@H](CO)C(=O)N[C@@H](CO)C(=O)N[C@@H](CO)C(=O)N[C@@H](CO)C(=O)N[C@@H](CO)C(=O)N[C@@H](CO)C(=O)N[C@@H](CCCCN)C(=O)N[C@@H](CCCNC(=N)N)C(N)=O)C(C)C [Example 11, H-DPSLPVASSSSSSSKR-NH2] (H-DPSLPVASSSSSSSKR-NH2)
17 | 0.02 | CC[C@H](C)[C@H](NC(=O)[C@@H]1CCCN1C(=O)[C@@H](NC(=O)[C@H](Cc1ccccc1)NC(=O)[C@H](CC(C)C)NC(=O)[C@@H](NC(=O)[C@H](CO)NC(=O)CNC(=O)[C@H](CC(C)C)NC(=O)[C@H](CC(C)C)NC(=O)[C@@H]1CCCN1)[C@@H](C)O)[C@@H](C)CC)C(N)=O [Example 12, H-PLLGSTLFIPI-NH2] (H-PLLGSTLFIPI-NH2)
18 | 0.09 | CSCC[C@H](NC(=O)[C@H](CCC(N)=O)NC(=O)[C@H](Cc1ccccc1)NC(=O)CNC(=O)[C@H](CO)NC(=O)[C@@H](N)CC(=O)O)C(=O)N[C@@H](CC(N)=O)C(=O)N[C@@H](CCC(N)=O)C(=O)N[C@@H](CC(C)C)C(=O)N[C@@H](CCCNC(=N)N)C(N)=O [Example 13, H-DSGFQMNQLR-NH2] (H-DSGFQMNQLR-NH2)
19 | 0.08 | CSCC[C@H](NC(=O)CNC(=O)[C@H](Cc1ccccc1)NC(=O)[C@H](CC(=O)O)NC(=O)[C@H](CCCNC(=N)N)NC(=O)[C@H](CCSC)NC(=O)[C@@H](NC(=O)[C@@H](NC(=O)[C@@H](NC(=O)[C@H](CO)NC(=O)[C@@H](N)Cc1ccccc1)C(C)C)[C@@H](C)O)[C@@H](C)O)C(N)=O [Example 16, H-FSVTTMRDFGM-NH2] (H-FSVTTMRDFGM-NH2)
20 | 0.16 | CSCC[C@H](NC(=O)[C@H](Cc1ccccc1)NC(=O)[C@H](Cc1ccc(O)cc1)NC(=O)[C@H](CC(N)=O)NC(=O)[C@@H](N)CO)C(=O)N1CCC[C@H]1C(=O)N[C@@H](Cc1ccccc1)C(=O)N[C@@H](CO)C(=O)N[C@@H](C)C(N)=O [Example 21, H-SNYFMPFSA-NH2] (H-SNYFMPFSA-NH2)
21 | 0.23 | C[C@H](NC(=O)[C@H](CCC(=O)O)NC(=O)[C@@H]1CCCN1C(=O)[C@H](CCC(N)=O)NC(=O)[C@H](Cc1ccccc1)NC(=O)[C@H](CO)NC(=O)[C@H](CO)NC(=O)[C@@H](N)CCC(=O)O)C(=O)NCC(=O)N[C@@H](Cc1ccccc1)C(N)=O [Example 24, H-ESSFQPEAGF-NH2] (H-ESSFQPEAGF-NH2)
